# According to patent US20150291658A1, “NOVEL CHONDRAMIDE DERIVATIVES” (HELMOLTZ-ZENTRUM FÜR INFEKTIONSFORSCHUNG, priority 2012, published 2015):
# Entries after “also recorded” stand apart in the source; their conditions may differ. Read-outs that look alike come from different tables or passages of the source.
# Tests used:
# [1] = tested on: human U-2 OS osteosarcoma cell line; test: Growth inhibition experiments (MTT, 5 d), U-2 OS; format: cell-based
# Procedure: (§1) Cells were seeded at 6×10^3 cells per well of 96-well plates (Corning CellBind®) in 180 μl complete medium and directly treated with chondramides dissolved in methanol in a serial dilution. Each compound was tested in duplicate for 5 d, as well as the internal methanol control. After 5 d incubation, 20 μl of 5 mg/ml MTT (Mosmann, T. (1983). Rapid Colorimetric Assay for Cellular Growth and Survival: Application to Proliferation and Cytotoxicity Assays. J. Immunol. Meth. 65, 55-63) in PBS was added per well and it was further incubated for 2 h at 37° C. The medium was then discarded and cells were washed with 100 μl PBS before adding 100 μl 2-propanol/10 N HCl (250:1) in order to dissolve formazan granules. The absorbance at 570 nm was measured using a microplate reader (EL808, Bio-Tek Instruments Inc.), and cell viability was expressed as percentage relative to the respective methanol control. GI50 values were obtained by sigmoidal curve fitting. Testing of fractions was performed likewise using 1.2×10^4 cells per well. Samples were dissolved in cell culture medium and cells were treated for 2 d before adding MTT. Viability was expressed relative to the untreated control.
# [2] = tested on: multidrug resistant (MDR) KB-V.1 cell line; test: Growth inhibition experiments (MTT, 5 d), KB-V.1; format: cell-based; conditions: Table 1
# Procedure: Cancer Inst. 90, 1559-1563). […] The same applies for most novel derivatives, solely a hydroxyl group at C2′ of the polyketide segment instead of methoxy or simply hydrogen leads to an approximately 10-fold reduced potency. GI50 values of glycosylated derivatives were not determinable precisely in the assay's concentration range.
# as §1
# [3] = target: T1, pyrene-labeled rabbit muscle actin (Oryctolagus cuniculus, UniProt P68135); test: Actin polymerization assay (pyrene actin fluorescence); format: biochemical; conditions: 20 μM derivative, 5 μM pyrene actin, non-polymerizing buffer, followed over 85 min
# T1 construct: pyrene-labeled rabbit muscle actin; purchased Cytoskeleton, Inc; host or cells: rabbit muscle (tissue-derived; inferred from the name)
# Procedure: A final concentration of 20 μM for each derivative was chosen and polymerization was followed over 85 min.
# Fluorescence-based actin polymerization assays were performed using pyrene muscle actin (Cytoskeleton, Inc.) according to the supplier's protocol. Chondramides were dissolved in non-polymerizing buffer (5 mM Tris-HCl pH 8.0, 0.2 mM CaCl2, 0.2 mM ATP, 1 mM DTT) and mixed with pyrene actin diluted in the same buffer to give a final concentration of 20 μM chondramide and 5 μM actin. Samples were prepared in black, low-volume 384-well plates (Corning, NBS™ surface). The fluorescence at 405 nm (excitation at 360 nm) was scanned every 30 s for 85 min at 37° C. on a microplate reader (Spectramax M5^e, Molecular Devices). Experiments were performed in duplicates and the average relative fluorescence of polymerizing pyrene actin is given. Slopes were calculated in the linear range of kinetic measurements.
# [4] = tested on: fibroblast cell line MRC5; test: Growth inhibition experiments (MTT, 5 d), MRC5; format: cell-based, human; conditions: Table 1
# Procedure: (§2) With primary cells (HUVEC, human umbilical vein endothelial cells) and the fibroblast cell line MRC5 this is not the case. Whereas chondramides A˜C are comparably active on both, cancer and non-cancerous cells, brominated chondramide C3 analogs are on average by factor 2-4 less toxic for non-cancerous cells. Accordingly they show a higher selectivity.
# as §1
# L-929 = test: Growth inhibition experiments (GI50), L-929; format: cell-based; conditions: Table 1
# [5] = tested on: KB-3.1: human cervical carcinoma; test: Growth inhibition experiments (GI50), KB-3.1; format: cell-based; conditions: for GI50 values KB-3.1: Table 1
# [6] = tested on: HUVEC, human umbilical vein endothelial cells (primary cells); test: Growth inhibition experiments (MTT, 5 d), HUVEC; format: cell-based; conditions: Table 1
# From the text: as §2
# (§3) Cell lines were obtained from the American Type Culture Collection (ATCC) and the German Collection of Microorganisms and Cell Cultures (Deutsche Sammlung für Mikroorganismen and Zellkulturen, DSMZ), and HUVEC (single donor) were purchased from PromoCell. Cells were cultured under the conditions recommended by the respective depositor in a standard humidified incubator at 37° C. with 5% CO2.
# as §1
# [7] = tested on: panel of cell lines derived from various origins and tissues (cancer cell lines, non-cancerous cell lines, primary cells); test: Growth inhibition experiments (MTT, 5 d), panel of cell lines; format: cell-based; conditions: for GI50 values on human cancer cell lines: cell-based studies; for growth inhibitory activity in cell lines (in words, compared to chondramides A~C / other derivatives): GI50-based comparison, panel of cell lines
# Procedure: First, the compounds were tested on a small panel of cell lines derived from various origins and tissues. GI50 values were compared to those determined using chondramides A˜C (see Table 1).
# as §3, §1
# These compounds were profiled regarding their growth inhibitory potential in a panel of cancer cell lines. Natural chondramide A was used as reference:
# Biological evaluation of group A derivatives. GI50 values [nM] were determined in a small panel of cancer cell lines.
# [8] = tested on: HCT-116 colon carcinoma cell line; test: Growth inhibition experiments (MTT, 5 d), HCT-116; format: cell-based, human
# Procedure: as §1
# [9] = tested on: RAW246.7: murine leukemic monocyte macrophages; test: Growth inhibition experiments (GI50), RAW246.7; format: cell-based; conditions: group A derivatives, small panel of cancer cell lines
# [10] = Table 1, U-2 OS, read-out: GI50 values U-2 OS
# [11] = Table 1, HCT-116, read-out: GI50 values HCT-116
melting point,Compound,"GI50 [1, 10]",GI50 values KB-V.1 [2],actin-polymerizing effect (G-actin polymerization in vitro) [3],GI50 [4],GI50 (L-929),GI50 values KB-3.1 [5],GI50 [6],GI50 values on human cancer cell lines [7],"GI50 [8, 11]","growth inhibitory activity in cell lines (in words, compared to chondramides A~C / other derivatives) [7]",GI50 values L-929 (L-929),GI50 values HUVEC [6],GI50 [9],"GI50 ([1]; group A derivatives, small panel of cancer cell lines, U-2 OS human osteosarcoma, read-out: GI50 U-2 OS)","GI50 KB-3.1 ([5]; group A derivatives, small panel of cancer cell lines, KB-3.1 human cervical carcinoma)","GI50 ([8]; group A derivatives, small panel of cancer cell lines, HCT-116 human colon carcinoma, read-out: GI50 HCT-116)"
122 to 126 °C,C/C1=C\CCOC(=O)C[C@H](c2ccc(O)c(Cl)c2)NC(=O)[C@@H](Cc2c[nH]c3ccccc23)N(C)C(=O)[C@H](C)NC(=O)CC1,,,,,,,,,,,,,,,,
135 to 139 °C,C/C1=C\CCOC(=O)C[C@H](c2ccc(O)c(Cl)c2)NC(=O)[C@@H](Cc2c(Cl)[nH]c3ccccc23)N(C)C(=O)[C@H](C)NC(=O)CC1,,,,,,,,,,,,,,,,
129 to 132 °C,C/C1=C\CCOC(=O)C[C@H](c2ccc(O)c(Br)c2)NC(=O)[C@@H](Cc2c[nH]c3ccccc23)N(C)C(=O)[C@H](C)NC(=O)CC1,,,,,,,,,,,,,,,,
,COC1C(=O)OC(C)C(C)C=C(C)CC(C)C(=O)NC(C)C(=O)N(C)C(Cc2c[nH]c3ccccc23)C(=O)NC1c1ccc(O)c(Br)c1 (stereo not drawn) [Bromo-Chondramide A3],0.0377 ± 0.0028 µM,0.0112 ± 0.0004 µM,quickly polymerizes G-actin,0.0445 ± 0.0049 µM,0.0694 ± 0.0015 µM,0.0745 ± 0.0142 µM,0.0327 ± 0.0029 µM,low nanomolar range,0.0429 ± 0.0032 µM,,,,,,,
,COC1C(=O)OC(C)C(C)C=C(C)CC(C)C(=O)NC(C)C(=O)N(C)C(Cc2c[nH]c3ccccc23)C(=O)NC1c1ccc(O)c(Cl)c1 (stereo not drawn) [Chondramide A3],0.0467 ± 0.0065 µM,0.0857 ± 0.0014 µM,significantly reduced actin-polymerizing effect,0.038 ± 0.0028 µM,0.0728 ± 0.0036 µM,0.0635 ± 0.0126 µM,0.0505 ± 0.0056 µM,,0.0286 ± 0.0039 µM,comparable to chondramides A˜C,,,,,,
,COC1C(=O)OC(C)C(C)C=C(C)CC(C)C(=O)NC(C)C(=O)N(C)C(Cc2c(Cl)[nH]c3ccccc23)C(=O)NC1c1ccc(O)c(Cl)c1 (stereo not drawn) [Chondramide A4],0.0264 ± 0.0022 µM,0.0831 ± 0.0016 µM,similarly potent; also recorded: increases the polymerization rate even more drastically,0.0127 ± 0.0014 µM,0.0676 ± 0.0098 µM,0.0568 ± 0.007 µM,0.0525 ± 0.0074 µM,,0.0444 ± 0.0016 µM,,,,,,,
,COC1C(=O)OC(C)C(C)C=C(C)CC(C)C(=O)NC(C)C(=O)N(C)C(Cc2c(Cl)[nH]c3ccccc23)C(=O)NC1c1ccc(OP(=O)(O)O)cc1 (stereo not drawn) [Chondramide A6],0.0516 ± 0.0046 µM,0.0231 ± 0.0015 µM,significantly reduced actin-polymerizing effect,0.0259 ± 0.0015 µM,0.0446 ± 0.0055 µM,0.0493 ± 0.0076 µM,0.0677 ± 0.0104 µM,,0.0609 ± 0.0035 µM,comparable to chondramides A˜C,,,,,,
,COC1C(=O)OC(C)C(C)C=C(C)CC(C)C(=O)NC(C)C(=O)N(C)C(Cc2c(Cl)[nH]c3ccccc23)C(=O)NC1c1ccc(OP(=O)(O)O)c(Cl)c1 (stereo not drawn) [Chondramide A8],0.0332 ± 0.0034 µM,0.0581 ± 0.004 µM,significantly reduced actin-polymerizing effect,0.0076 ± 0.0047 µM,0.0562 ± 0.0125 µM,0.0134 ± 0.003 µM,0.0241 ± 0.0079 µM,,0.0493 ± 0.0076 µM,comparable to chondramides A˜C,,,,,,
,COC1C(=O)OC(C)C(C)C=C(C)CC(C)C(=O)NC(C)C(=O)N(C)C(Cc2c[nH]c3ccccc23)C(=O)NC1c1ccc(OC2OC(C(=O)O)C(O)C(O)C2O)c(Cl)c1 (stereo not drawn) [Chondramide A9],,w.a.,does not show any actin-polymerizing effect,,,,,,,significantly reduced,w.a.,,,,,
,COC1C(=O)OC(C)C(C)C=C(C)CC(C)C(=O)NC(C)C(=O)N(C)C(Cc2c(Cl)[nH]c3ccccc23)C(=O)NC1c1ccc(OC2OC(C(=O)O)C(O)C(O)C2O)c(Cl)c1 (stereo not drawn) [Chondramide A10],,w.a.,slow increase in G-actin polymerization; also recorded: partly restore the ability to polymerize actin,,,w.a.,,,,significantly reduced,,w.a.,,,,
,"CO[C@@H]1C(=O)O[C@H](C)[C@H](C)/C=C(\C)C[C@H](C)C(=O)N[C@@H](C)C(=O)N(C)[C@H](Cc2c[nH]c3ccccc23)C(=O)N[C@H]1c1ccc(O)cc1 [Chondramide A, reference compound]",0.0271 ± 0.0041 µM,0.038 ± 0.0105 µM,,0.0638 ± 0.013 µM,0.0909 ± 0.0118 µM,0.0505 ± 0.0154 µM,0.0437 ± 0.007 µM,,0.0489 ± 0.0146 µM,,,,0.0473 µM,0.0685 µM,0.0716 µM,0.0917 µM
,CC1=CC(C)C(C)OC(=O)C(O)C(c2ccc(O)c(Cl)c2)NC(=O)C(Cc2c(Cl)[nH]c3ccccc23)N(C)C(=O)C(C)NC(=O)C(C)C1 (stereo not drawn) [Chondramide E4],0.352 ± 0.0306 µM,0.2515 ± 0.0791 µM,decreased ability to polymerize actin,0.48 ± 0.0636 µM,0.555 ± 0.0816 µM,0.6272 ± 0.1225 µM,0.207 ± 0.0264 µM,,0.379 ± 0.0302 µM,,,,,,,
,CCC1OC(=O)CC(c2ccc(O)c(Br)c2)NC(=O)C(Cc2c[nH]c3ccccc23)N(C)C(=O)C(C)NC(=O)C(C)CC(C)=CC1C (stereo not drawn) [Propionyl-Bromo-Chondramide C3],0.009 ± 0.0006 µM,0.0319 ± 0.002 µM,,0.13 ± 0.0037 µM,0.023 ± 0.0021 µM,0.038 ± 0.0065 µM,0.0502 ± 0.0056 µM,low nanomolar range,0.0172 ± 0.0016 µM,the most active in cell-based studies,,,,,,
,CCC1OC(=O)CC(c2ccc(O)cc2)NC(=O)C(Cc2c[nH]c3ccccc23)N(C)C(=O)C(C)NC(=O)C(C)CC(C)=CC1C (stereo not drawn) [Propionyl-Chondramide C1],0.0151 ± 0.0011 µM,0.0227 ± 0.0083 µM,significantly reduced actin-polymerizing effect,0.0719 ± 0.0041 µM,0.03 ± 0.0077 µM,0.0563 ± 0.0096 µM,0.0546 ± 0.0055 µM,,0.0421 ± 0.0032 µM,comparable to chondramides A˜C,,,,,,
